# Laboratory results reported in US11319318B2, “Pyridinones and isoquinolinones as inhibitors of the bromodomain BRD9” (Boehringer Ingelheim International GmbH, priority 2015, dated 2022).
# Target: T1, bromodomain of BRD9 (GST fusion) / acetylated histone H4 peptide (BET Bromodomain Ligand) (Homo sapiens, UniProt Q9H8M2)
# T1 construct: A GST fusion protein of the bromodomain of BRD9; purchased BPS Biosciences #32519
# T1 sequence (Q9H8M2 136-240 limits assumed): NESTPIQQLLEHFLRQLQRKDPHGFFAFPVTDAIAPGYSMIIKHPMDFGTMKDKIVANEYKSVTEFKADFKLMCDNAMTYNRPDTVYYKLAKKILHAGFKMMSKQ
# Assay: BRD9-H4 Tetraacetylated Peptide Inhibition AlphaScreen
# Type: binding
# Source text: BRD9-H4 Tetraacetylated Peptide Inhibition AlphaScreen
# This assay is used to identify compounds which inhibit the interaction of the bromodomain of BRD9 with a tetra-acetylated peptide based on the sequence of histone H4 (termed the “BET Bromodomain ligand” as purchased from BPS Biosciences).
# A GST fusion protein of the bromodomain of BRD9 and an acetylated histone H4 peptide (the “BET Bromodomain Ligand” are purchased as part of the BRD9 Inhibitor Screening Assay Kit at BPS Biosciences (Cat. Number: #32519)
# AlphaScreen Beads (Perkin Elmer):
# AlphaLISA Glutathione Acceptor Beads
# AlphaScreen Streptavidin Donor Beads
# Assay plates: Proxiplate-384 PLUS, white (PerkinElmer)
# The assay is done in a darkened room below 100 Lux.
# Compounds are dispensed onto assay plates using an Access Labcyte Workstation with the Labcyte Echo 550 from a DMSO solution. For the chosen highest concentration of 100 μM, 150 nl of compound solution are transferred from a 10 mM DMSO solution. A series of 11 concentrations is transferred for each compound at which each concentration is five-fold lower than the previous one (i.e. 100 μM, 20 μM, 4 μM, 0.8 μM, etc). DMSO is added such that every well has a total of 150 nl of DMSO.
# 15 μl of the resulting mix are added to the assay plates that contain 150 nl of the compounds. After 60 min at room temperature the signal is measured in a PerkinElmer Envision HTS Multilabel Reader using the AlphaScreen specifications from PerkinElmer.
# Each plate contains negative controls where biotinylated BET Bromodomain Ligand and GST-BRD9 are left out and replaced by assay buffer. Negative control values are entered as low basis value when using the software GraphPad Prism for calculations.
row,Structure (SMILES),IC50 [nM]
1,CN1CCN(C(=O)c2ccc(-c3cc(C(F)F)c(=O)n(C)c3)cc2)CC1 [Compound I-27],705
2,"CN1CCN(C(=O)c2ccc(-c3cc(I)c(=O)n(C)c3)cc2)CC1 [Compound I-43, 3-Iodo-1-methyl-5-[4-(4-methyl-piperazine-1-carbonyl)-phenyl]-1H-pyridin-2-one]",65
3,Cc1cc(-c2ccc(CN3CCN(C)CC3)cc2)cn(C)c1=O [Compound I-88],78
4,Cc1cc(-c2cc(C)c(=O)n(C)c2)ccc1C(=O)N1CCNCC1 [Compound I-162],33
5,Cc1cc(-c2ccc(C(=O)c3cncnc3)cc2)cn(C)c1=O [Compound I-97],267
6,Cc1cc(-c2cccc(OC(F)F)c2)cn(C)c1=O [Compound I-101],503
7,Cc1cc(-c2ccc(N)cc2)cn(C)c1=O [Compound I-91],128
8,Cc1ccc(-c2cc(C)c(=O)n(C)n2)cc1NS(C)(=O)=O [Compound I-26],2560
9,"Cc1cc(-c2ccc(C(=O)NC3CCN(C)CC3)cc2)cn(C)c1=O [Compound I-30, 4-(1,5-Dimethyl-6-oxo-1,6-dihydro-pyridin-3-yl)-N-(1-methyl-piperidin-4-yl)-benzamide]",444

# Continued, values first:
row,IC50 [nM],Structure (SMILES)
1,294,CCS(=O)(=O)Cc1cc(-c2cc(C)c(=O)n(C)c2)ccc1C(=O)N(C)C [Compound I-172]
2,29,Cc1cc(-c2ccc(C(=O)N3CCNCC3)c(CS(C)(=O)=O)c2)cn(C)c1=O [Compound I-170]
3,2690,"Cc1ccc(-c2cn(C)c(=O)c3cc(N)ccc23)cc1NS(C)(=O)=O [II-37, N-[5-(7-Amino-2-methyl-1-oxo-1,2-dihydro-isoquinolin-4-yl)-2-methyl-phenyl]-methanesulfonamide]"
4,151,"COc1cc(C(=O)N2CCN(C)CC2)ccc1-c1cc(C)c(=O)n(C)c1 [Compound I-173, 5-[2-Methoxy-4-(4-methyl-piperazine-1-carbonyl)-phenyl]-1,3-dimethyl-1H-pyridin-2-one]"
